Consider 1 molecule from US20250222109A1, “STRUCTURED LIPID COMPOSITIONS” (Universität Bern, priority 2022, published 2025).

This data set is described as follows: SAXS phase identification of MLO-water mesophases (TIF-Gel). In kind it is physicochemical. The settings on record: 10% w/w of drug; lamellar at room temperature, cubic (Ia3d) at 38° C. The method, then:
SAXS measurements were used to determine the phase identity and symmetry of the produced LMPs. Measurements were performed on a Bruker AXS Micro, with a microfocused X-ray source, operating at voltage and filament current of 50 kV and 1000 μA, respectively. The Cu Kα radiation (λCu Kα=1.5418 Å) was collimated by a 2D Kratky collimator, and the data were collected by a 2D Pilatus 100K detector. The scattering vector Q=(4π/λ) sin θ, with 2θ being the scattering angle, was calibrated using silver behenate. Data were collected and azimuthally averaged using the Saxsgui software to yield 1D intensity vs. scattering vector Q, with a Q range from 0.001 to 0.5 Å^−1. For all measurements the samples were placed inside a stainless-steel cell between two thin replaceable mica sheets and sealed by an O-ring, with a sample volume of 10 μL and a thickness of ˜1 mm. Measurements were performed at 25° C., 30° C., 34° C., 36° C. and 38° C. Samples were equilibrated for 10 min before measurements whereas scattered intensity was collected over 30 min and over 60 min in case of lamellar phase. On the other hand, for the kinetic study, the sample was pre equilibrated at 25° C. and inserted in the sample holder kept at 38° C. and the scattered intensity collected over 5 min. To determine the structural parameters such as the size of the water channels, SAXS data information on the lattice were combined with the composition of the samples (R. Mezzenga, et al., Shear rheology of lyotropic liquid crystals: a case study, Langmuir 21, 3322-3333 (2005)).
MLO was used as the lipid component of the mesophases and mixed with weighed amounts of drugs (10% w/w) in sealed Pyrex tubes and alternatively centrifuging (10 min, 5000 g) several times at room temperature until a homogenous mixture was obtained. The mesophase was then equilibrated for 48 h at room temperature in the dark (see, FIGS. 1A and 1B).
Firstly, small angle X-ray scattering (SAXS) measurements were used to determine the optimal amount of water needed to obtain a lamellar phase which provides a transition to a cubic at 38° C. (FIGS. 2B and 2C). The X-ray beam directed at the gel results in a scattering pattern with a set of maxima, that correspond to sharp Bragg reflections characteristic of the long-range positional order. The sequence of Bragg reflections (and their ratio; listed in FIG. 2A) identifies the symmetry of the mesophase studied (See also FIGS. 1A and 1B).

Molecules are shown by their SMILES.

For the molecule `C=CC[C@@H]1/C=C(\C)C[C@H](C)C[C@H](OC)[C@H]2O[C@@](O)(C(=O)C(=O)N3CCCC[C@H]3C(=O)O[C@H](/C(C)=C/[C@@H]3CC[C@@H](O)[C@H](OC)C3)[C@H](C)[C@@H](O)CC1=O)[C@H](C)C[C@@H]2OC` [TAC, tacrolimus], the “effect of drug on phase identity and transition temperature of the gel” value is “did not affect the phase identity and the transition temperature”.
